Drawing on patent US11976083B2, “Inhibitors of peptidylarginine deiminases” (Gilead Sciences, Inc., priority 2020, dated 2024), this text covers IC50 for 18 compounds.

By pIC50 is commonly meant the IC50 on a negative log10 scale, so that one unit is a factor of ten.

Molecules are shown by their SMILES. pIC50: −log10 of the molar value.

For the assay, the target named is T1, human PAD4 (Homo sapiens, UniProt Q9UM07).
T1 construct: human PAD4 (NM_012387), A2-P663, was PCR amplified; His-SUMO (N, cleaved yes); made in house; host or cells: E. coli BL21(DE3)
T1 sequence (Q9UM07 2-663): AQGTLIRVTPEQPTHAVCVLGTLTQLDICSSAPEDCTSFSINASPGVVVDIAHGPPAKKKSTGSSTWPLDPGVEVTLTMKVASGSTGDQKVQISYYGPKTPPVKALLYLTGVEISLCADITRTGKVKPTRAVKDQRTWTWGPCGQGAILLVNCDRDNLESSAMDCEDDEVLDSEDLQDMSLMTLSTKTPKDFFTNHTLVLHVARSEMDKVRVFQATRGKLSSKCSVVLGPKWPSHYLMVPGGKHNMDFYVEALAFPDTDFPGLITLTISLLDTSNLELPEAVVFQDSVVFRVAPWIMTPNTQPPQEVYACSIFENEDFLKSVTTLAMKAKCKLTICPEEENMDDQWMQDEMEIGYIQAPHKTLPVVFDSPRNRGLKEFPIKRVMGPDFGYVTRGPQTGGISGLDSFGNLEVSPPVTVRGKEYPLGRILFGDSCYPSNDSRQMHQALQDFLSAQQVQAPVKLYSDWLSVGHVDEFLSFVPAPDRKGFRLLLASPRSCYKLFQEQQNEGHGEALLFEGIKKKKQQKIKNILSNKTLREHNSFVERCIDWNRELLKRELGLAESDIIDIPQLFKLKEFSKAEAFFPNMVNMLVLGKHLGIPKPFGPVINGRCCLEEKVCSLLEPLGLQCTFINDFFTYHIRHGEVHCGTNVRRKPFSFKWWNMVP
Put plainly: In vitro PAD4 BAEE biochemical assay. The following applies: BAEE substrate 3 mM, 5 nM PAD4, 2 mM calcium chloride; geometric mean of multiple experiments. The procedure, abridged: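 Recombinant PAD4 (5 nM final) with 2 mM CaCl2 was preincubated with compound for 30 min at 25 °C in MOPS pH 7.6 buffer with DTT, then reacted with 3 mM BAEE for 2 h at 25 °C. Released ammonia was detected fluorimetrically with o-phthalaldehyde/DTT; IC50 from four-parameter fit, geometric mean of experiments.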

As to `C[C@H]1NC(=O)CCOC[C@@H]2C[C@@H]2Cn2c(-c3nc4cc(C(=O)N[C@H]5CNCC[C@@H]5F)c(F)cc4n3C3CC3)cc3ccc1nc32` [Example 622, 1-cyclopropyl-6-fluoro-~ {N}-[(3~{S},4~{S})-4-fluoro-3-piperidyl]-2-[(3~{S},5~{R},12~{R})-12-methyl-10-oxo-7-oxa-1,11,20-triazatetracyclo[11.5.2.0^ {3,5}.0^{16,19}]icosa-13(20),14,16(19), 17-tetraen-18-yl] benzimidazole-5-carboxamide], the pIC50 was 7.23.
`COc1cc(C(=O)N[C@H]2CNCC[C@@H]2F)cc2nc(-c3cc4ccc5nc4n3CCCCCc3c(noc3C)C(=O)N[C@@H]5C)n(C)c12` [Example 398, 2-[(2~{R})-2,8-dimethyl-4-oxo-7-oxa-3,6,15,21-tetrazatetracyclo[13.5.2.0^{5,9}.0^{18,22}]docosa-1(21),5,8,16,18(22),19-hexaen-16-yl]-~{N}-[(3~{S},4~{S})-4-fluoro-3-piperidyl]-7-methoxy-1-methyl-benzimidazole-5-carboxamide]: the pIC50 is 7.13.
The value for `COc1cc(C(=O)N2CCC[C@@H](N)[C@H]2CO)cc2nc(-c3cc4ccc5nc4n3CCCCC[C@@H]3C[C@H]3C(=O)N[C@@H]5C)n(C)c12` [Example 408, (2~{R},5~{R},7~{R})-14-[5-[(2~{S},3~{R})-3-amino-2-(hydroxymethyl)piperidine-1-carbonyl]-7-methoxy-1-methyl-benzimidazol-2-yl]-2-methyl-3,13,19-triazatetracyclo[11.5.2.0^{5,7}.0^{16,20}] icosa-1(19),14,16(20),17-tetraen-4-one] was 6.59; that for `COc1cc(C(=O)N2CCC[C@@H](N)C2)cc2nc(-c3cc4ccc5nc4n3CCCCCCCCS(=O)(=O)N5C)n(C)c12` [Example 937] was 6.73; that for `COc1cc(C(=O)N2CCC[C@@H](N)C2)cc2nc(-c3cc4ccc5cc4n3CCCC3CCN(CC3)C(=O)c3ccccc3-5)n(C)c12` [Example 55, 17-[5-[(3~{R})-3-aminopiperidine-1-carbonyl]-7-methoxy-1-methyl-benzimidazol-2-yl]-9,16-diazapentacyclo[14.5.2.2^{9,12).0^{2,7}.0^ {19,23}]pentacosa-1(22),2,4,6,17,19(23),20-heptaen-8-one] was 5.33.
Consider `COc1cc(C(=O)N2CC[C@@H](OC)[C@@H](N)C2)cc2nc(-c3cc4ccc5nc4n3CCCCCC(C)(C)C(=O)N[C@@H]5C)n(C)c12` [Example 61, (10~{R})-16-[5-[(3~{S},4~{R})-3-amino-4-methoxy-piperidine-1-carbonyl]-7-methoxy-1-methyl-benzimidazol-2-yl]-7,7,10-trimethyl-1,9,18-triazatricyclo[9.5.2.0^{14,17}]octadeca-11(18),12,14(17),15-tetraen-8-one], for which the pIC50 is 6.64.
With `COc1cc(C(=O)N2CCC[C@@H](N)[C@H]2C(F)F)cc2nc(-c3cc4ccc5nc4n3CCCCCCC(C)(C)C(=O)N[C@@H]5C)n(C)c12` [Example 644, (11~{R})-17-[5-[(2~{S), 3~{R})-3-amino-2-(difluoromethyl)piperidine-1-carbonyl]-7-methoxy-1-methyl-benzimidazol-2-yl]-8,8,11-trimethyl-1,10,19-triazatricyclo [10.5.2.0^{15,18}]nonadeca-12(19),13,15(18),16-tetraen-9-one] the figure was 7.12; with `COc1cc(C(=O)N2CCC[C@@H](N)C2)cc2nc(-c3cc4ccc5nc4n3C[C@H]3C[C@H]3COC[C@H](C)C(=O)N[C@@H]5C)n(C)c12` (single isomer, unassigned) [Example 313, (3˜{S},5˜{R},9˜{S},12˜{R})-18-[5-[(3˜{R})-3-aminopiperidine-1-carbonyl]-7-methoxy-1-methyl-benzimidazol-2-yl]-9,12-dimethyl-7-oxa-1,11,20-triazatetracyclo[11.5.2.0^{3,5}.0^{16,19}]icosa-13(20),14,16(19),17-tetraen-10-one], 7.07; with `COc1cc(C(=O)N2[C@H]3CC[C@@H]2[C@H](N)C3)cc2nc(-c3cc4ccc5nc4n3CCCCCOC(C)(C)C(=O)N[C@@H]5C)n(C)c12` [Example 21, (11~{R})-17-[5-[(1~{R},2~{R},4~{S})-2-amino-7-azabicyclo[2.2.1]heptane-7-carbonyl]-7-methoxy-1-methyl-benzimidazol-2-yl]-8,8,11-trimethyl-7-oxa-1,10,19-triazatricyclo[10.5.2.0^{15,18}]nonadeca-12(19),13,15(18),16-tetraen-9-one], 7.20.
On to `C[C@H]1NC(=O)c2ccc(C3CC3)nc2CCCCCn2c(-c3nc4cc(C(=O)N5C[C@H](N)[C@@H]6CC[C@H]5C6)cc(F)c4n3C3CC3)cc3ccc1nc32` [Example 813, (2˜{R})-17-[5-[(1˜{S},4˜{R},5˜{R})-4-amino-2-azabicyclo[3.2.1]octane-2-carbonyl]-1-cyclopropyl-7-fluoro-benzimidazol-2-yl]-8-cyclopropyl-2-methyl-3,9,16,22-tetrazatetracyclo[14.5.2.0^{5,10}.0^{19,23}]tricosa-1(21),5(10),6,8,17,19,22-heptaen-4-one], for which the pIC50 is 7.59.
The value for `C[C@H]1NC(=O)C(C)(C)CCCCCCn2c(-c3nc4cc(C(=O)N[C@H]5CNCC[C@@H]5F)c(F)cc4n3CC(F)F)cc3ccc1nc32` [Example 418, 1-(2,2-difluoroethyl)-6-fluoro-~{N}-[(3~{S},4~{S})-4-fluoro-3-piperidyl]-2-[(11~{R})-8,8,11-trimethyl-9-oxo-1,10,19-triazatricyclo[10.5.2.0^{15,18}]nonadeca-12(19),13,15(18),16-tetraen-17-yl]benzimidazole-5-carboxamide] was 6.91; that for `C[C@H]1NC(=O)c2ccc(Cl)nc2CCCC(F)(F)Cn2c(-c3nc4cc(C(=O)N5C[C@H](N)[C@@H]6CC[C@H]5C6)cc(F)c4n3C3CC3)cc3ccc1nc32` [Example 814, (2~{R})-17-[5-[(1~{S), 4~{R},5~{R})-4-amino-2-azabicyclo[3.2.1]octane-2-carbonyl]-1-cyclopropyl-7-fluoro-benzimidazol-2-yl]-8-chloro-14,14-difluoro-2-methyl-3,9,16,22-tetrazatetracyclo[14.5.2.0^ {5,10).0^{19,23}]tricosa-1(21),5(10),6,8,17,19,22-heptaen-4-one] was 7.42; that for `COc1cc(C(=O)N2[C@H]3CC[C@@H]2[C@H](N)C3)cc2nc(-c3cc4ccc5nc4n3CCCCCC(C)(C)C(=O)N[C@@H]5C)n(C)c12` [Example 102, (10~{R})-16-[5-[(1~{R},2~{R},4~{S})-2-amino-7-azabicyclo[2.2.1]heptane-7-carbonyl]-7-methoxy-1-methyl-benzimidazol-2-yl]-7,7,10-trimethyl-1,9,18-triazatricyclo[9.5.2.0^{14,17}]octadeca-11(18),12,14(17),15-tetraen-8-one] was 7.35.
With `COc1cc(C(=O)N[C@H]2CNCC[C@@H]2F)cc2nc(-c3cc4ccc5nc4n3CCCCCC[C@@H](OC)C(=O)N[C@@H]5C)n(C)c12` [Example 621, ~{N}-[(3~{S},4~{S})-4-fluoro-3-piperidyl]-7-methoxy-2-[(8~{R},11~ {R})-8-methoxy-11-methyl-9-oxo-1,10,19-triazatricyclo[10.5.2.0^ {15,18}]nonadeca-12(19),13,15(18),16-tetraen-17-yl]-1-methyl-benzimidazole-5-carboxamide] the figure was 7.37.
The value for `C[C@H]1NC(=O)C(C)(C)CCCCCCn2c(-c3nc4cc(C(=O)N[C@H]5CNCC[C@@H]5F)cc(Cl)c4n3C)cc3ccc1nc32` [Example 501, 7-chloro-~{N}-[(3~ {S},4~{S})-4-fluoro-3-piperidyl]-1-methyl-2-[(11~{R})-8,8,11-trimethyl-9-oxo-1,10,19-triazatricyclo[10.5.2.0^{15,18}]nonadeca-12(19),13,15(18), 16-tetraen-17-yl] benzimidazole-5-carboxamide] was 6.57; that for `C[C@H]1NC(=O)c2cc(Cl)ncc2CCCCCn2c(-c3nc4cc(C(=O)N[C@H]5CNCC[C@@H]5F)c(F)cc4n3C3CC3)cc3ccc1nc32` [Example 356, 2-[(2~{R})-7-chloro-2-methyl-4-oxo-3,8,16,22-tetrazatetracyclo[14.5.2.0^{5,10).0^{19,23}]tricosa-1(22),5,7,9,17,19(23),20-heptaen-17-yl]-1-cyclopropyl-6-fluoro-~ {N}-[(3~{S},4~{S})-4-fluoro-3-piperidyl]benzimidazole-5-carboxamide] was 7.43.
Regarding `COc1cc(C(=O)N2CC[C@@H](OC)[C@@H](N)C2)cc2nc(-c3cc4ccc5nc4n3CCCc3cccc(c3)CC(=O)N[C@@H]5C)n(C)c12` [Example 866, (13˜{R})-19-[5-[(3˜{S},4˜{R})-3-amino-4-methoxy-piperidine-1-carbonyl]-7-methoxy-1-methyl-benzimidazol-2-yl]-13-methyl-1,12,21-triazatetracyclo[12.5.2.1^{5,9}.0^{17,20}]docosa-5,7,9(22),14(21),15,17(20),18-heptaen-11-one], the pIC50 was 7.10.
As to `C[C@H]1NC(=O)[C@H]2[C@@H](CCCCCn3c(-c4nc5cc(C(=O)N[C@H]6CNCC[C@@H]6F)c(F)cc5n4C)cc4ccc1nc43)C2(F)F` (single isomer, unassigned) [Example 381, 2-[(2˜{R},5˜{R},7˜{R})-6,6-difluoro-2-methyl-4-oxo-3,13,19-triazatetracyclo[11.5.2.0^{5,7}.0^{16,20}]icosa-1(19),14,16(20),17-tetraen-14-yl]-6-fluoro-˜{N}-[(3˜{S},4˜{S})-4-fluoro-3-piperidyl]-1-methyl-benzimidazole-5-carboxamide], the pIC50 was 7.54.
